Experimental findings from PubChem BioAssay (NCI) are described below.

Holding throughout (experiment): inhibition of tumour cell growth, NCI panel, 48 h
In test [1] the test system is ACHN renal.
In test [2] the test system is SK-MEL-5 melanoma.
Test [3] has as its system SNB-19 CNS.
Test [4] concerns OVCAR-8 ovarian.
Test [5] deals with NCI-H226 lung.
Test [6] deals with SR leukemia.
The subject of test [7] is K-562 leukemia.
The subject of test [8] is NCI-H460 lung.
Test [9] has as its system LOX IMVI melanoma.
Test [10] deals with HCC-2998 colon.
Test [11] relates to MDA-MB-231 breast.
In test [12] the test system is SW-620 colon.
Test [13] has as its system RXF 393 renal.
In test [14] the test system is HCT-116 colon.
Test [15] concerns OVCAR-5 ovarian.
Test [16] deals with T-47D breast.
For test [17], the system named is SF-539 CNS.

Molecules are shown by their SMILES.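 The compound was tested at five concentrations on cells cultured in 96-well plates, with a 48-hour exposure period. At the TGI there is no net growth.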 Where a SMILES comes first, the peptide text is derived from it. Square brackets hold non-standard residues; d marks the D form. Peptide text beside a SMILES is read from it. [ ]: non-standard residue; d: D form. The star is where a group is joined. ξ: configuration not given here. Phe(4-NO2) = N[CH](Cc1ccc([N+](=O)[O-])cc1)C(=O)O; ξPhe(4-NO2) = NC(Cc1ccc([N+](=O)[O-])cc1)C(=O)O; Boc = CC(C)(C)OC(=O)*

In the case of `CCNC(=O)CNC(=O)C(Cc1ccc([N+](=O)[O-])cc1)NC(=O)OC(C)(C)C` (centres undefined) (Boc-[ξPhe(4-NO2)]-Gly-NHEt), the TGI in test [1], in test [2], in [3], in test [4], in test [5] and in [6] was above 100 µM each time. In addition, the TGI in test [7], in test [8], in test [9], in [10], in [11] and in test [12] was above 100 µM throughout. Moreover, the TGI in test [13], in [14] and in test [15] was above 100 µM each time.

For `Cc1ccc2c(=O)c(C(=O)NNC(=S)NC3CCCCC3)c[nH]c2n1`, the TGI in test [1], in test [2], in test [3], in test [4], in [5] and in [7] was above 100 µM in each case. Besides, the TGI in test [8], in test [9], in [11], in test [16], in test [12] and in [13] was above 100 µM in each case. The TGI in test [14] and in test [15] was above 100 µM each time.

As to `COc1cc(C2SCC(=O)N2NC(=O)c2ccc(NC(C)=O)cc2OC)ccc1O` (centres undefined), the TGI in [1] is above 100 µM; in [3] it was above 100 µM; in test [4] it was 62.9 µM; in [6], above 100 µM; in test [17], above 100 µM; in test [7], above 100 µM. Besides, the TGI in test [9] is above 100 µM; in [16] it was above 100 µM; in test [12] it was above 100 µM; in test [13], above 100 µM; in test [14], above 100 µM; in [15] it was 65.1 µM.

As for `CCOC(OCC)[C@H](N)[C@@H](O)[C@@H](O)[C@H]1COC(C)(C)O1`, the TGI in test [1], in test [2], in [3], in [4], in [5] and in [6] was above 100 µM throughout. The TGI in test [7], in [9], in test [11], in [12], in test [14] and in test [15] was above 100 µM throughout.

As to `O=c1oc2ccccc2n1CCCn1c(=O)oc2ccccc21`, the TGI in test [1], in [2], in test [3], in [4], in test [5] and in test [6] was above 100 µM throughout. Besides, the TGI in test [17], in test [7], in test [8], in test [9], in [11] and in [12] was above 100 µM each time. Besides, the TGI in test [13], in test [14] and in test [15] was above 100 µM in each case.

`COc1ccc2c(c1)C=C(C(C)(C)C)NS2(=O)=O`: the TGI in test [1], in [2], in test [3], in [4], in test [5] and in test [6] was above 100 µM each time. In addition, the TGI in test [17], in test [7], in test [8], in test [9], in [10] and in [12] was above 100 µM in each case. The TGI in test [13], in test [14] and in test [15] was above 100 µM each time.

As to `CC1=CC(=O)/C(=C/N2C(=O)CNC2=S)C(=O)O1`, the TGI in test [1], in test [2], in test [3], in test [4], in [5] and in test [17] was above 100 µM in each case. The TGI in test [8], in [9], in test [10], in test [11], in test [16] and in test [12] was above 100 µM each time. The TGI in test [14] and in [15] was above 100 µM in each case.

On to `CC(c1ccccc1)C(O)S(=O)(=O)O` (centres undefined), for which the TGI in [1], in test [3], in [4], in test [5], in [17] and in test [8] was above 100 µM each time. In addition, the TGI in test [9], in test [12], in test [13], in test [14] and in test [15] was above 100 µM in each case.

Take `CC1(C)/C(=N\Nc2ccc([N+](=O)[O-])cc2[N+](=O)[O-])C2CCC1C2` (centres undefined): the TGI in [1], in test [2], in test [3], in test [4], in test [5] and in test [6] was above 100 µM throughout. In addition, the TGI in test [7], in test [8], in [9], in test [16], in test [12] and in test [14] was above 100 µM in each case. Besides, the TGI in [15] is above 100 µM.

For the compound `S=C(S)N1CCN(c2ccccc2)CC1`, the TGI in test [1], in test [2], in test [3], in test [4], in test [17] and in [7] was above 100 µM each time. Also, the TGI in test [9], in test [10], in [11], in test [16], in test [12] and in test [13] was above 100 µM each time. Moreover, the TGI in test [14] and in test [15] was above 100 µM in each case.

Take `CC(C)(C)OC(=O)N1CCC(NC(=O)NC2CCN(C(=O)OC(C)(C)C)CC2)CC1`: the TGI in [1], in [3], in [4], in [6], in test [17] and in [8] was above 100 µM each time. Moreover, the TGI in [9], in test [10], in test [11], in test [12], in test [14] and in test [15] was above 100 µM each time.

As to `CC1(C)CN=C(Nc2ccc(F)c(Cl)c2)S1`, the TGI in [1], in [2], in test [3], in [4], in test [5] and in [6] was above 100 µM throughout. The TGI in test [17], in [7], in test [9], in [10], in test [16] and in test [12] was above 100 µM in each case. Moreover, the TGI in [13], in test [14] and in test [15] was above 100 µM in each case.

`COC(=O)CCC(NC(=O)C(CCC(=O)OC)NC(=O)C(CCC(=O)OC)NC(=O)C(CCC(=O)OC)NC(=O)C(CCC(=O)OC)NC(=O)C(Cc1ccc([N+](=O)[O-])cc1)NC(=O)C(CCC(=O)OC)NC(=O)C(CCC(=O)OC)NC(=O)C(CCC(=O)OC)NC(=O)C(CCC(=O)OC)NC(=O)C(CCC(=O)OC)NC(C)=O)C(N)=O` (centres undefined) (Ac-E(OMe)E(OMe)E(OMe)E(OMe)E(OMe)[Phe(4-NO2)]E(OMe)E(OMe)E(OMe)E(OMe)E(OMe)-NH2; configuration not given here): the TGI in [1], in test [2], in test [3], in test [4], in [6] and in test [8] was above 100 µM each time. The TGI in test [9], in test [11], in test [12], in test [13], in [14] and in test [15] was above 100 µM throughout.

With `C/C(=N\Nc1nc2ccccc2o1)c1cc2ccccc2cn1`, the TGI in test [1] is 2.55 µM; in test [2] it was 22.5 µM; in test [3], 20.5 µM; in test [8], above 100 µM; in test [11] it was 8.75 µM; in test [16], above 100 µM. Also, the TGI is above 100 µM in [12], 4.87 µM in test [13], 15.8 µM in test [14] and 16.4 µM in test [15].

On to `COc1ccc2c(c1)c(=O)c1c(NCCCN(C)C)ccc3ncn2c31`, for which the TGI in test [1] was 16.8 µM; in [2], 24.3 µM; in test [3], 20.5 µM; in test [4], 9.4 µM; in test [5] it was 22.2 µM; in test [6] it was above 44.9 µM. In addition, the TGI in test [17] was 17 µM; in [7], above 56.1 µM; in [8] it was 8.03 µM; in [9], 4.86 µM; in [10], 9.86 µM; in [16] it was 32.8 µM. Further, the TGI in [12] came to 15.3 µM; in [13], 2.28 µM; in test [14], 13 µM; in [15], 25.5 µM.

In the case of `COc1ccc(NC(=S)Nc2c(C)n(C)n(-c3ccccc3)c2=O)cc1`, the TGI in test [1], in test [2], in [3], in [4], in [5] and in test [17] was above 100 µM each time. For the same compound, the TGI in test [7], in test [8], in [9], in [10], in test [11] and in test [12] was above 100 µM throughout. Besides, the TGI in test [13], in [14] and in test [15] was above 100 µM each time.

Consider `CS(=O)(=O)CCC(N)P(=O)(O)O` (centres undefined), for which the TGI in [1], in [2], in test [3], in test [4], in [5] and in test [6] was above 100 µM each time. For the same compound, the TGI in test [7], in test [8], in test [9], in [16], in test [12] and in test [14] was above 100 µM each time. In test [15], this compound registered a TGI above 100 µM.

As for `O=C1CN(c2ccccc2)C(=O)CN1CCN1CC(=O)N(c2ccccc2)CC1=O`, the TGI in [1], in test [2], in test [3], in [4], in [6] and in test [17] was above 100 µM throughout. The TGI in test [8], in test [10], in [12], in [13], in test [14] and in test [15] was above 100 µM throughout.

As for `O=C(NNC(=O)c1c(Cl)c(Cl)c(Cl)c(Cl)c1-c1nc2ccccc2[nH]1)c1ccc(Cl)cc1`, the TGI in test [1], in [2], in [3], in [4], in test [5] and in test [6] was above 100 µM each time. The TGI in test [17] is above 100 µM; in [7], above 100 µM; in [9], above 100 µM; in [16], 93.5 µM; in test [12] it was above 100 µM; in test [13], above 100 µM. The TGI in test [14] and in test [15] was above 100 µM in each case.
